# In paper PMC4491869, “Antimicrobial activity of synthetic cationic peptides and lipopeptides derived from human lactoferricin against Pseudomonas aeruginosa planktonic cultures and biofilms” (BMC Microbiology, 2015):
# Like-named read-outs stand apart in the source and are kept apart here. Where a SMILES comes first, the peptide text is derived from it. The star is where a group is joined. Butanoyl(2,2-Me2) = CCC(C)(C)C(=O)*; Octanoyl(6-Me) = CCC(C)CCCCC(=O)*; Octanoyl = CCCCCCCC(=O)*
# Experiments:
# P. aeruginosa PAO1 = assay: Time-kill curves (T3log); type: cell-based, Pseudomonas aeruginosa; details: MH, 37 °C with shaking, sampling 15 min to 6 h
# Description: Time-kill studies were determined with glass tubes containing 10 ml of MH and different concentrations of the peptides (1, 2 and 4 times their MIC). Overnight cultures of P. aeruginosa PAO1 in TSB were adjusted at 5 × 10^7 CFU/ml turbidimetrically. This […] suspension was diluted in the MH tubes (1:50) for the time-kill assay. Tubes were incubated at 37 °C with shaking and samples were taken at the following time points after the beginning of incubation: 15 min, 30 min, 45 min, 1 h, 2 h, 4 h and 6 h. Each sample was serially diluted and plated. The lower limit of detection was 30 CFU/ml (1.5 × log10 CFU/ml).
# To quantify the killing efficiency of the treatments, the parameter T3log (defined as the time required for the treatment to decrease 3 logs the initial inoculum) was used.
# [1] = test system: Pseudomonas aeruginosa PAO1 planktonic cells; type: cell-based
# Description: Minimal inhibitory concentrations (MIC) of the peptides were determined in Mueller Hinton (MH) medium (Difco Laboratories, Detroit, MI, USA) by the broth microdilution assay following recommendations of the Clinical and Laboratory Standards Institute (CLSI, formerly NCCLS) with some modifications. Minimum bactericidal concentration (MBC) was defined as the concentration that caused a 3-log viability decrease in the initial inoculum and was calculated by colony counts on TSA plates incubated for 24 h at 37 °C.
# [2] = test system: P. aeruginosa PAO1 biofilms; assay: Microplate biofilm assay (static flow regime), crystal violet removal activity; type: cell-based, Pseudomonas aeruginosa; details: 10XMIC, 24 h at 37 °C, biofilms grown in microplates (static conditions)
# Description: In the microplate based assay, biofilms were grown with no fluid shear and the anti-biofilm activity of peptides was assessed as previously described with some modifications. Briefly, overnight cultures of P. aeruginosa PAO1 in TSB were adjusted at 5 × 10^7 CFU/ml turbidimetrically. This suspension was diluted in TSB (1:100) and 100 μl aliquots were added to the wells of a 96-well plate. After 24 h incubation at 37 °C, planktonic bacteria were removed by gently inverting the plate and then the biofilm-containing wells were washed with saline (0.85 % NaCl). The antimicrobial compound was serially diluted in Mueller Hinton (MH) at final concentrations higher than its planktonic MIC and 200 μl of each dilution was added to the wells. […]
# The ability of the antimicrobials to remove the biofilm attached to the microplate well was determined by CV staining. […] The absorbance was measured at 595 nm.
# (§1) Both the disinfection and removal activity of antimicrobials were expressed as “activity percentage”, a parameter that was calculated using the following formula: ActivityPercentage=C−B−T−B/C−B×100
# (§2) Where C is the absorbance value of the control well with non-treated biofilm, T corresponds to the absorbance value of the well with treated biofilm and B is the blank well (i.e. with no biofilm).
# [3] = test system: P. aeruginosa PAO1 biofilms; type: cell-based, Pseudomonas aeruginosa
# Description: In the microplate based assay, biofilms were grown with no fluid shear and the anti-biofilm activity of peptides was assessed as previously described with some modifications. Briefly, overnight cultures of P. aeruginosa PAO1 in TSB were adjusted at 5 × 10^7 CFU/ml turbidimetrically. This suspension was diluted in TSB (1:100) and 100 μl aliquots were added to the wells of a 96-well plate. After 24 h incubation at 37 °C, planktonic bacteria were removed by gently inverting the plate and then the biofilm-containing wells were washed with saline (0.85 % NaCl). The antimicrobial compound was serially diluted in Mueller Hinton (MH) at final concentrations higher than its planktonic MIC and 200 μl of each dilution was added to the wells. After 24 h incubation at 37 °C, biofilms were stained with either MTT (Sigma, St. Louis, MO, USA) or crystal violet (CV). As control, duplicate biofilms were incubated with MH containing no antimicrobial.
# To quantify the disinfection (or bactericidal) activity of the antimicrobials on the biofilms, the MTT assay was used and performed as follows. After the treatment, the biofilms were rinsed with saline and 200 μl of a 0.5 mg/ml dilution of MTT in MH, was added to the wells. Incubation of biofilm with MTT was carried out during 4 h at 37 °C with no shaking. As a measure of cell viability, the conversion of MTT to a […] was determined by solubilizing the salt in 100 μl/well of DMSO and reading the absorbance of the resulting solution at 540 nm.
# as §1, §2
# HeLa cells = assay: Cytotoxicity assay (MTT); type: cell-based; details: HeLa cells, 24 h, MTT; maximum concentration assayed 10 times their MIC
# Description: Cytotoxicity was assayed on HeLa cells using the MTT [3-(4,5-dimethylthiazoyl-2-yl) 2,5 diphenyltetrazolium bromide protocol. Cells were grown in Dulbeccos’s modified Eagle’s medium (DMEM) and adjusted to a concentration of 10^5 cells/ml (MTT) in 96 wells polystyrene plates. Plates were incubated for 24 h at 37 °C in 5 % CO2, then supplemented with increasing amounts of peptides diluted in 2 mM Hepes pH 7.2, and incubation carried on for 24 h under the same conditions. After this time, filter-sterilized MTT was added in different plates. After 3 h, the content of the wells was gently solved and mixed with 100 μl of DMSO (MTT). Absorbance was measured at 540 nm. Compound cytotoxicity was expressed as LC50, the concentration of the compound that is lethal to 50 % of the cells.
Structure (SMILES),"MIC (minimal inhibitory concentration) ([1]; PAO1, 24 h)",T3log at 1X MIC (time needed to decrease 3 logs the initial inoculum) (P. aeruginosa PAO1),T3log at 2X MIC (time needed to decrease 3 logs the initial inoculum) (P. aeruginosa PAO1),T3log at 4X MIC (time needed to decrease 3 logs the initial inoculum) (P. aeruginosa PAO1),"MBC (minimal bactericidal concentration) ([1]; PAO1, 24 h)","Removal activity (biofilm mass removed, CV test) [2]","Disinfection activity (biofilm-forming bacteria killed, MTT test) ([3]; 10XMIC, 24 h at 37 °C, biofilms grown in microplates (static conditions))","MIC (minimal inhibitory concentration) ([1]; PAO1 planktonic cells, broth microdilution in Mueller Hinton medium, CLSI with some modifications)","MBC (minimal bactericidal concentration) ([1]; PAO1 planktonic cells, concentration causing a 3-log viability decrease in the initial inoculum, colony counts on TSA, 24 h, 37 °C)",LC50 relative to the maximum concentration assayed (HeLa cells),"Disinfection activity (biofilm-forming bacteria killed, MTT test) ([3]; PAO1, 24 h)"
CCC(C)CCCCC(=O)N[C@@H](Cc1ccccc1)C(=O)N[C@@H](Cc1c[nH]c2ccccc12)C(=O)N[C@@H](CCCNC(=N)N)C(=O)N[C@H](C(=O)N[C@@H](CCCNC(=N)N)C(=O)N[C@H](C(=O)N[C@@H](CCCNC(=N)N)C(=O)N[C@@H](CCCNC(=N)N)C(N)=O)[C@@H](C)CC)[C@@H](C)CC (stereo partly shown) [6-MO-LF11-215] ({Octanoyl(6-Me)}-FWRIRIRR-NH2),64 µg/mL,34 minutes,11 minutes,10 minutes,64 µg/mL,–,–,–,–,–,–
CCC(C)CCCCC(=O)N1CCC[C@H]1C(=O)N[C@@H](Cc1ccccc1)C(=O)N[C@@H](Cc1c[nH]c2ccccc12)C(=O)N[C@@H](CCCNC(=N)N)C(=O)N[C@H](C(=O)N[C@@H](CCCNC(=N)N)C(=O)N[C@H](C(=O)N[C@@H](CCCNC(=N)N)C(=O)N[C@@H](CCCNC(=N)N)C(N)=O)[C@@H](C)CC)[C@@H](C)CC (stereo partly shown) [6-MO-LF11-322] ({Octanoyl(6-Me)}-PFWRIRIRR-NH2),64 µg/mL,41 minutes,39 minutes,19 minutes,64 µg/mL,–,–,–,–,–,–
"CC[C@H](C)[C@H](NC(=O)[C@H](CCCNC(=N)N)NC(=O)[C@@H](NC(=O)[C@H](CCCNC(=N)N)NC(=O)[C@H](Cc1c[nH]c2ccccc12)NC(=O)[C@H](Cc1ccccc1)NC(=O)C(C)(C)CC)[C@@H](C)CC)C(=O)N[C@@H](CCCNC(=N)N)C(=O)N[C@@H](CCCNC(=N)N)C(N)=O [DI-MB-LF11-215] ({Butanoyl(2,2-Me2)}-FWRIRIRR-NH2)",16 µg/mL,17 minutes,11 minutes,10 minutes,16 µg/mL,higher than 35%,medium-range disinfection activity,–,–,–,–
CC[C@H](C)[C@H](NC(=O)[C@H](CCCNC(=N)N)NC(=O)[C@@H](NC(=O)[C@H](CCCNC(=N)N)NC(=O)[C@H](Cc1c[nH]c2ccccc12)NC(=O)[C@@H](N)Cc1ccccc1)[C@@H](C)CC)C(=O)N[C@@H](CCCNC(=N)N)C(=O)N[C@@H](CCCNC(=N)N)C(N)=O [LF11-215] (H-FWRIRIRR-NH2),–,–,–,–,–,–,–,64 µg/mL,128 µg/mL,> 10 times their MIC,–
N=C(N)NCCC[C@H](NC(=O)[C@H](CCCNC(=N)N)NC(=O)[C@H](Cc1c[nH]c2ccccc12)NC(=O)[C@H](Cc1ccccc1)NC(=O)[C@H](CCCNC(=N)N)NC(=O)[C@H](CCCNC(=N)N)NC(=O)[C@H](Cc1c[nH]c2ccccc12)NC(=O)[C@@H](N)Cc1ccccc1)C(N)=O [LF11-227] (H-FWRRFWRR-NH2),64 µg/mL,–,–,–,64 µg/mL,–,–,–,–,–,~100%
CC[C@H](C)[C@H](NC(=O)[C@H](CCCNC(=N)N)NC(=O)[C@@H](NC(=O)[C@H](CCCNC(=N)N)NC(=O)[C@H](Cc1c[nH]c2ccccc12)NC(=O)[C@H](Cc1ccccc1)NC(=O)[C@@H]1CCCN1)[C@@H](C)CC)C(=O)N[C@@H](CCCNC(=N)N)C(=O)N[C@@H](CCCNC(=N)N)C(N)=O [LF11-322] (H-PFWRIRIRR-NH2),32 µg/mL,–,–,–,64 µg/mL,–,–,–,–,–,–

# The next lines start with results.
"MIC (minimal inhibitory concentration) ([1]; PAO1, 24 h)",Structure (SMILES),T3log at 1X MIC (time needed to decrease 3 logs the initial inoculum) (P. aeruginosa PAO1),T3log at 2X MIC (time needed to decrease 3 logs the initial inoculum) (P. aeruginosa PAO1),T3log at 4X MIC (time needed to decrease 3 logs the initial inoculum) (P. aeruginosa PAO1),"MBC (minimal bactericidal concentration) ([1]; PAO1, 24 h)","Removal activity (biofilm mass removed, CV test) [2]","Disinfection activity (biofilm-forming bacteria killed, MTT test) ([3]; 10XMIC, 24 h at 37 °C, biofilms grown in microplates (static conditions))","MIC (minimal inhibitory concentration) ([1]; PAO1 planktonic cells, broth microdilution in Mueller Hinton medium, CLSI with some modifications)","MBC (minimal bactericidal concentration) ([1]; PAO1 planktonic cells, concentration causing a 3-log viability decrease in the initial inoculum, colony counts on TSA, 24 h, 37 °C)",LC50 relative to the maximum concentration assayed (HeLa cells),"Disinfection activity (biofilm-forming bacteria killed, MTT test) ([3]; PAO1, 24 h)"
8 µg/mL,CC[C@H](C)[C@H](NC(=O)[C@H](CCCNC(=N)N)NC(=O)[C@@H](NC(=O)[C@H](CCCNC(=N)N)NC(=O)[C@H](Cc1c[nH]c2ccccc12)NC(=O)[C@H](Cc1ccccc1)NC(=O)[C@H](Cc1ccccc1)NC(=O)[C@@H]1CCCN1)[C@@H](C)CC)C(=O)N[C@@H](CCCNC(=N)N)C(=O)N[C@@H](CCCNC(=N)N)C(N)=O [LF11-324] (H-PFFWRIRIRR-NH2),–,–,–,8 µg/mL,–,–,–,–,–,–
32 µg/mL,CCCCCCCC(=O)N[C@@H](Cc1ccccc1)C(=O)N[C@@H](Cc1c[nH]c2ccccc12)C(=O)N[C@@H](CCCNC(=N)N)C(=O)N[C@H](C(=O)N[C@@H](CCCNC(=N)N)C(=O)N[C@H](C(=O)N[C@@H](CCCNC(=N)N)C(=O)N[C@@H](CCCNC(=N)N)C(N)=O)[C@@H](C)CC)[C@@H](C)CC [O-LF11-215] (Octanoyl-FWRIRIRR-NH2),17 minutes,21 minutes,10 minutes,32 µg/mL,–,–,–,–,–,–
128 µg/mL,CCCCCCCC(=O)N[C@@H](Cc1ccccc1)C(=O)N[C@@H](Cc1c[nH]c2ccccc12)C(=O)N[C@@H](CCCNC(=N)N)C(=O)N[C@@H](CCCNC(=N)N)C(=O)N[C@@H](Cc1ccccc1)C(=O)N[C@@H](Cc1c[nH]c2ccccc12)C(=O)N[C@@H](CCCNC(=N)N)C(=O)N[C@@H](CCCNC(=N)N)C(N)=O [O-LF11-227] (Octanoyl-FWRRFWRR-NH2),10 minutes,10 minutes,10 minutes,128 µg/mL,–,–,–,–,–,–
